Assay results as given in publication PMC2745946 (International immunopharmacology, 2009).
Entries after “also recorded” stand apart in the source; their conditions may differ. Where two headings read alike, the source gives them in different places. Each block holds one compound with its values, some of them ahead of it.

Tests used:
NF-κB [1] = assay: TNF-α induced NF-κB luciferase reporter assay in C2C12 myotubes; format: cell-based; settings: 0.0001-10μM, TNF-α 10ng/ml
NF-κB [2] = assay: TNF-α induced NF-κB luciferase reporter assay in C2C12 myoblasts; format: cell-based; settings: for NF-κB inhibition in myoblasts: 0.0001-10μM, TNF-α 10ng/ml; for Luciferase activity (reduced to): 1μg/ml, myoblasts
C2C12 myotubes = assay: MTT cell viability assay in C2C12 myotubes; settings: for Myotubes % Cell Viability: MTT at respective IC50 concentration, relative to untreated controls
NF-κB [3] = settings: read-out: IC50, LPS-induced NF-κB; macrophage cell line; cited from earlier work
[4] = MTT cell viability assay in C2C12 myotubes; settings: mouse
NF-κB p65 = assay: Immunostaining for NF-κB p65 nuclear translocation in C2C12 myoblasts; format: cell-based; settings: drug 1μg/ml 24 hours, then TNF-α 24 hours
[5] = MTT cell viability assay in C2C12 myoblasts; settings: mouse
[6] = 10mg/kg; cited from earlier work
NF-κB [7] = settings: read-out: IC50, NF-κB inhibition; macrophage reporter cell line; cited from earlier work
[8] = mdx mouse; 5mg/kg; cited from earlier work
[9] = mdx model; 1.2mg/kg; cited from earlier work
in vitro = settings: mouse
C2C12 myoblasts = assay: MTT cell viability assay in C2C12 myoblasts; settings: MTT at respective IC50 concentration; relative to untreated controls
NF-κB [10] = settings: primary human peripheral blood and mononuclear cells; cited from earlier work
[11] = Myoblast, read-out: NF-κB inhibition luciferase activity, Mean ± SD

Compound: CC(C)(C)c1ccc(S(=O)(=O)/C=C/C#N)cc1 [Bay 11-7085]
NF-κB inhibition in myotubes (words) (NF-κB [1]; listed as BAY 11-7085): no inhibition
NF-κB inhibition in myotubes (words) (NF-κB [1]; listed as Bay-11 7085): exhibited NF-κB inhibition
NF-κB inhibition in myoblasts (NF-κB [2]): but not myoblasts
Myotubes % Cell Viability (C2C12 myotubes): 87.2%

Compound: CC1=C(O)C(=O)C=C2C1=CC=C1[C@@]2(C)CC[C@@]2(C)[C@@H]3C[C@](C)(C(=O)O)CC[C@]3(C)CC[C@]12C [Celastrol]
IC50 (NF-κB [3]): 0.27 µM
IC50 (NF-κB [2]; Mus musculus, C2C12, read-out: IC50 in myocytes): ~0.001 µM
viability at 48 h [4]: 72.1%
Toxicity to myotubes (C2C12 myotubes; 10μg/ml, MTT): 35%
NF-κB nuclear translocation (qualitative) (NF-κB p65): appeared to block nuclear translocation; also recorded: reduced the amount of nuclear translocation
viability at 48 h [5]: 83.9%
Paw swelling [6]: reduce paw swelling a similar amount as Prednisolone

NF-κB inhibition in myotubes (words) (NF-κB [1]): did not inhibit NF-κB
NF-κB inhibition in myoblasts (NF-κB [2]): did not inhibit NF-κB
NF-κB inhibition in myocytes, myoblasts and myotubes together (NF-κB [2]): mostly ineffective
Compound: O=C(O[C@@H]1Cc2c(O)cc(O)cc2O[C@@H]1c1cc(O)c(O)c(O)c1)c1cc(O)c(O)c(O)c1 [EGCG, Epigallocatechin gallate]
IC50 (NF-κB [7]): 12 µM
Muscle histology, force contractions and creatine kinase leakage [8]: improve mdx mouse muscle histology, force contractions and creatine kinase leakage

NF-κB inhibition in myotubes (words) (NF-κB [1]): did not inhibit NF-κB
NF-κB inhibition in myoblasts (NF-κB [2]): did not inhibit NF-κB
NF-κB inhibition in myocytes, myoblasts and myotubes together (NF-κB [2]): mostly ineffective
Compound: Cc1ccc(=O)n(-c2ccccc2)c1 [Pirfenidone]
Cardiac function [9]: improve cardiac function

Compound: C[C@]12C=CC(=O)C=C1CC[C@@H]1[C@@H]2[C@@H](O)C[C@@]2(C)[C@H]1CC[C@]2(O)C(=O)CO [Prednisolone]
viability at 48 h (in vitro): 81.6%
inhibition at 0.1 µM (NF-κB [2]; [11]): 51.7 ± 13.6%
inhibition at 1 µM (NF-κB [2]; [11]): 79.2 ± 9.22%
inhibition at 10 µM (NF-κB [2]; [11]): 85.4 ± 4.59%
Luciferase activity (reduced to) (NF-κB [2]; long regime: 24 h pretreatment, 24 h TNF-α): 38%
NF-κB inhibition in myocytes, myoblasts and myotubes together (NF-κB [2]): effective at inhibiting the NF-κB pathway
Luciferase activity (reduced to) (NF-κB [2]; short regime: 30min pretreatment, 3hr TNF-α): 49.5%
NF-κB nuclear translocation (qualitative) (NF-κB p65): appeared to block nuclear translocation; also recorded: reduced the amount of nuclear translocation
viability at 48 h ([5]; C2C12 myoblasts containing an NF-κB luciferase reporter): 78.8%

Compound: CC1=C(CO)C(=O)O[C@@H]([C@@H](C)[C@H]2CC[C@H]3[C@@H]4C[C@H]5O[C@]56[C@@H](O)C=CC(=O)[C@]6(C)[C@H]4CC[C@]23C)C1 [Withaferin]
NF-κB inhibition in myocytes, myoblasts and myotubes together (NF-κB [2]): effective at inhibiting NF-κB
Myotubes % Cell Viability (C2C12 myotubes): 72.7%
Myoblasts % Cell Viability (C2C12 myoblasts): 61.1%
Maximal effective dose (NF-κB [10]): 1.0 mg/mL

NF-κB inhibition in myotubes (words) (NF-κB [1]): did not inhibit NF-κB
NF-κB inhibition in myoblasts (NF-κB [2]): did not inhibit NF-κB
NF-κB inhibition in myocytes, myoblasts and myotubes together (NF-κB [2]): mostly ineffective
Compound: Thymosin β4: small actin-sequestering protein that reduces inflammation and promotes healing in multiple tissues
